Laboratory results published in the supplement of paper PMC10331698.
± gives the standard deviation of the averaged measurements.

Key:
Experiment in all cases: level (log10 ratio to DMSO vehicle control); higher = higher biomarker level / cell amount than vehicle control
[1] = compound: O=C(O)C(F)(F)OC(F)(F)C(F)(F)OC(F)(F)C(F)(F)OC(F)(F)C(F)(F)C(F)(F)C(F)(F)F [Perfluoro-3,6,9-trioxatridecanoic acid] (in DMSO); settings: 6700 nM
Description: (§1)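 BioMAP Diversity Plus panel of 12 human primary cell co-culture systems (3C, 4H, LPS, SAg, BT, BF4T, BE3C, CASM3C, HDF3CGF, KF3CT, MyoF, Mphg). Compounds were added 1 h before stimulation and left for 24 h (MyoF 48 h; BT 72 h for soluble read-outs or 6 d for IgG). Biomarkers were read by ELISA, cytotoxicity by SRB, PBMC viability and proliferation by Alamar Blue. Each well value was divided by the mean of 8 DMSO control wells on the same plate and log10 transformed; duplicate blinded samples were tested at 4 concentrations.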

[2] = compound: O=C(O)C(F)(OC(F)(F)C(F)(F)C(F)(F)F)C(F)(F)F [Ammonium perfluoro-2-methyl-3-oxahexanoate] (in Water)
Description: as §1

[3] = compound: O=C(O)C(F)(F)C(F)(F)C(F)(F)C(F)(F)C(F)(F)C(F)(F)C(F)(F)C(F)(F)F [Perfluorononanoic acid] (in DMSO)
Description: as §1

[4] = compound: O=C(O)C(F)(OC(F)(F)C(F)(OC(F)(F)C(F)(OC(F)(F)C(F)(F)C(F)(F)F)C(F)(F)F)C(F)(F)F)C(F)(F)F [Perfluoro-(2,5,8-trimethyl-3,6,9-trioxadodecanoic)acid] (in DMSO)
Description: as §1

[5] = compound: C[C@@H]1C[C@H]2[C@@H]3CCC4=CC(=O)C=C[C@]4(C)[C@@]3(F)[C@@H](O)C[C@]2(C)[C@@]1(O)C(=O)COP(=O)(O)O [Dexamethasone sodium phosphate] (in DMSO)
Description: as §1

[6] = compound: OCCC(F)(F)C(F)(F)C(F)(F)C(F)(F)F [4:2 Fluorotelomer alcohol] (in DMSO)
Description: as §1

[7] = compound: OCC(F)(F)C(F)(F)C(F)(F)C(F)(F)C(F)(F)C(F)(F)CO [1H,1H,8H,8H-Perfluorooctane-1,8-diol] (in DMSO)
Description: as §1

[8] = compound: O=C(O)C(F)(F)C(F)(F)C(F)(F)C(F)(F)C(F)(F)C(F)(F)C(F)(F)C(F)(F)C(F)(F)C(F)(F)F [Perfluoroundecanoic acid] (in DMSO); settings: 6700 nM
Description: as §1

Test System	level (log10) [1]	level (log10) ([2]; 6700 nM)	level (log10) ([2]; 20000 nM)	level (log10) ([2]; 60000 nM)	level (log10) ([3]; 6700 nM)	level (log10) ([3]; 20000 nM)	level (log10) ([4]; 1100 nM)	level (log10) ([4]; 3300 nM)	level (log10) ([4]; 10000 nM)	level (log10) ([5]; 1500 nM)	level (log10) ([5]; 4400 nM)	level (log10) ([5]; 13000 nM)	level (log10) ([5]; 40000 nM)	level (log10) ([6]; 6700 nM)	level (log10) ([6]; 20000 nM)	level (log10) ([6]; 60000 nM)	level (log10) ([7]; 6700 nM)	level (log10) ([7]; 20000 nM)	level (log10) ([7]; 60000 nM)	level (log10) [8]
BF4T:CD106/VCAM-1	-0.205 ± 0.067	-0.0735 ± 0.039	-0.018 ± 0.0085	-0.008 ± 0.0014	-0.084 ± 0.086	-0.129 ± 0.035	-0.027 ± 0.0028	-0.0185 ± 0.026	-0.018 ± 0.023	-0.019 ± 0.011	-0.013 ± 0.028	-0.02 ± 0.0085	-0.049 ± 0.0042	-0.049 ± 0.083	0.022 ± 0.062	0.0485 ± 0.083	-0.006 ± 0.014	0.001 ± 0.0014	-0.006 ± 0.0057	-0.032 ± 0.041
BF4T:CXCL8/IL-8	0.0165 ± 0.049	-0.0135 ± 0.036	0.0295 ± 0.028	0.0255 ± 0.03	0.048 ± 0.0028	0.0165 ± 0.00071	0.0365 ± 0.0078	0.034 ± 0.024	0.034 ± 0.016	-0.0315 ± 0.04	-0.0495 ± 0.046	-0.0715 ± 0.033	-0.0435 ± 0.00071	0.0235 ± 0.039	0.035 ± 0.0014	0.082 ± 0.0014	-0.003 ± 0.0042	-0.0095 ± 0.0064	0.001 ± 0.0071	0.0815 ± 0.026
BF4T:IL-1alpha	-0.055 ± 0.013	0.018 ± 0.03	0.0055 ± 0.036	-0.0085 ± 0.021	-0.043 ± 0.0099	-0.029 ± 0.025	-0.005 ± 0.0099	-0.0105 ± 0.00071	-0.0025 ± 0.0035	0.0045 ± 0.028	-0.001 ± 0.013	-0.0165 ± 0.013	0.004 ± 0.023	-0.0245 ± 0.028	0.004 ± 0.0028	0.0055 ± 0.016	-0.0105 ± 0.011	-0.0135 ± 0.013	0.0145 ± 0.029	-0.014 ± 0.023
BF4T:Keratin 8/18	-0.0195 ± 0.079	-0.0205 ± 0.0078	-0.008 ± 0.035	-0.022 ± 0.014	-0.0155 ± 0.016	0.0075 ± 0.023	0.024 ± 0.0099	0.0055 ± 0.022	0.018 ± 0.0099	0.011 ± 0.047	-0.0015 ± 0.013	-0.0105 ± 0.019	-0.0025 ± 0.015	-0.026 ± 0.021	-0.0185 ± 0.039	0.017 ± 0.0028	-0.0005 ± 0.0021	0.021 ± 0.0014	-0.003 ± 0.0042	0 ± 0.014
BF4T:MMP-1	-0.0535 ± 0.012	0.031 ± 0.02	0.0105 ± 0.023	0.029 ± 0.011	-0.012 ± 0.028	0.0095 ± 0.016	0.0005 ± 0.0092	-0.0045 ± 0.011	0.0065 ± 0.018	0.006 ± 0.0014	-0.012 ± 0.013	-0.0215 ± 0.0092	-0.0125 ± 0.0021	-0.008 ± 0.031	-0.0005 ± 0.036	0.0085 ± 0.015	-0.0055 ± 0.0064	-0.0135 ± 0.022	0.019 ± 0.03	-0.0045 ± 0.005
BF4T:MMP-3	-0.0415 ± 0.064	0.0335 ± 0.047	0.018 ± 0.0057	0.048 ± 0.014	0.0005 ± 0.035	0.015 ± 0.0071	-0.01 ± 0.0014	-0.01 ± 0.014	0.015 ± 0.017	0.0565 ± 0.083	0.006 ± 0.061	-0.03 ± 0.05	0.0185 ± 0.033	-0.0135 ± 0.021	-0.008 ± 0.013	-0.011 ± 0.014	-0.013 ± 0.0042	0.018 ± 0.013	-0.0095 ± 0.0021	-0.002 ± 0.038
BF4T:MMP-9	-0.106 ± 0.079	0.0275 ± 0.005	0.047 ± 0.017	0.075 ± 0.013	-0.034 ± 0.038	-0.032 ± 0.0042	0.0045 ± 0.015	-0.003 ± 0.0028	0.0135 ± 0.00071	0.051 ± 0.041	0.026 ± 0.037	0.0035 ± 0.046	0.0225 ± 0.063	-0.0075 ± 0.03	-0.013 ± 0.0071	-0.011 ± 0.031	-0.019 ± 0.03	-0.008 ± 0.011	0.0075 ± 0.0092	-0.056 ± 0.04
BF4T:PAI-I	-0.011 ± 0.011	-0.004 ± 0.0028	0.001 ± 0.0042	0.005 ± 0.0028	-0.0145 ± 0.03	-0.007 ± 0.028	0.011 ± 0.0071	-0.0025 ± 0.0092	0.006 ± 0.018	-0.0005 ± 0.022	0.01 ± 0.013	0.001 ± 0.018	0.0085 ± 0.0021	-0.0075 ± 0.023	0.0005 ± 0.035	0.0005 ± 0.00071	0.018 ± 0.013	0 ± 0.0099	-0.0065 ± 0.011	0.007 ± 0.0085
BF4T:SRB	-0.038 ± 0.013	-0.003 ± 0.013	0 ± 0.0014	0.0135 ± 0.022	-0.002 ± 0.0014	-0.028 ± 0.0014	-0.0035 ± 0.00071	-0.0035 ± 0.011	0.003 ± 0.023	0.0155 ± 0.0078	0.0005 ± 0.0064	0.01 ± 0.013	0.0135 ± 0.016	-0.0075 ± 0.00071	-0.0105 ± 0.0078	-0.0045 ± 0.012	-0.002 ± 0.0042	-0.0005 ± 0.0035	-0.007 ± 0.0071	-0.0115 ± 0.0035
BF4T:tPA	-0.185 ± 0.057	0.0405 ± 0.0078	0.0575 ± 0.033	0.0185 ± 0.019	-0.025 ± 0.027	-0.0995 ± 0.026	-0.012 ± 0.02	-0.012 ± 0.0042	-0.0035 ± 0.021	0.0375 ± 0.05	0.01 ± 0.034	0.0145 ± 0.016	0.027 ± 0.021	-0.0085 ± 0.056	-0.0155 ± 0.071	0.022	-0.011 ± 0.014	-0.024 ± 0.0057	-0.025 ± 0.0085	-0.043 ± 0.037
BF4T:uPA	0.0245 ± 0.018	-0.0025 ± 0.011	-0.0005 ± 0.0078	0.0035 ± 0.022	-0.01 ± 0.054	0.0335 ± 0.032	0.008 ± 0.0028	0.0015 ± 0.0035	0.004 ± 0.0071	0.006 ± 0.025	-0.013 ± 0.045	-0.002 ± 0.013	-0.002 ± 0.0028	-0.008 ± 0.035	0.012 ± 0.013	0.018 ± 0.025	-0.005 ± 0.0042	-0.0035 ± 0.0092	-0.0035 ± 0.012	0.0275 ± 0.0064
BT:B cell Proliferation	0.028 ± 0.02	-0.239 ± 0.0085	-0.256 ± 0.011	-0.248 ± 0.0035	0.0085 ± 0.0092	0.0365 ± 0.022	-0.029 ± 0.027	-0.0035 ± 0.013	-0.0145 ± 0.011	-0.0145 ± 0.011	0.005 ± 0.013	-0.0245 ± 0.019	-0.0025 ± 0.015	0.0125 ± 0.0035	0.0155 ± 0.033	0.019 ± 0.0042	-0.029 ± 0.024	-0.007 ± 0.038	-0.0195 ± 0.052	-0.0035 ± 0.025
BT:PBMC Cytotoxicity	0.0125 ± 0.0078	-0.083 ± 0.016	-0.095 ± 0.0099	-0.0905 ± 0.023	-0.0065 ± 0.036	0.0515 ± 0.015	-0.0095 ± 0.0092	-0.022 ± 0.011	-0.04 ± 0.047	-0.0915 ± 0.00071	-0.102 ± 0.028	-0.107 ± 0.0064	-0.0975 ± 0.039	-0.044 ± 0.0042	-0.0365 ± 0.013	-0.045 ± 0.031	0.0065 ± 0.0092	-0.0145 ± 0.011	-0.0595 ± 0.011	0.0085 ± 0.029
